Laboratory results taken from PMC9897788, “Design, synthesis and cytotoxic evaluation of novel bis-thiazole derivatives as preferential Pim1 kinase inhibitors with in vivo and in silico study” (Journal of Enzyme Inhibition and Medicinal Chemistry, 2023).

How the values were obtained:
[1] = tested on: breast cancer T47D cell line; assay: Breast T47D cancer cell cycle flowcytometry; assay type: cell-based
Experimental: After treatment with test compounds for 48 h and paclitaxel (1 µM) for 48 h as positive control, cells (10^5 cells) are collected by trypsinization and washed twice with ice-cold PBS (pH 7.4). Cells are re-suspended in two millilitres of 60% ice-cold ethanol and incubated at 4 °C for 1 h for fixation. Fixed cells are washed twice again with PBS (pH 7.4) and re-suspended in 1 ml of PBS containing 50 µg/mL RNAase A and 10 µg/mL propidium iodide (PI). After 20 min of incubation in dark at 37 °C, cells are analysed for DNA contents using flow cytometry analysis using FL2 (λex/em 535/617 nm) signal detector (ACEA Novocyte™ flowcytometer, ACEA Biosciences Inc., San Diego, CA). For each sample, 12,000 events are acquired. Cell cycle distribution is calculated using ACEA NovoExpress™ software (ACEA Biosciences Inc., San Diego, CA)[36].

[2] = Solubility in DMSO (NMR observation); assay type: physicochemical; details: noticed from weak NMR signals

| Compound | Percentage of breast T47D cells, G0/G1 Phase ([1]; 48 h incubation) [%] | Percentage of breast T47D cells, Pre G1 Phase ([1]; 48 h incubation) [%] | Percentage of breast T47D cells, S Phase ([1]; 48 h incubation) [%] | G2 phase cells lower than the control by ([1]; relative to untreated control) [%] | pre-G1 phase cells higher than the untreated control by ([1]; relative to untreated control) [%] | Percentage of breast T47D cells, G2 Phase ([1]; 48 h incubation) [%] | S phase cells higher than the control by ([1]; relative to untreated control) [%] | solubility in DMSO [2] |
| --- | --- | --- | --- | --- | --- | --- | --- | --- |
| CC(=O)c1sc(Nc2cccc(Nc3nc(C)c(C(C)=O)s3)c2)nc1C [3b, 1,1’-(2,2’-(1,3-Phenylenebis(azanediyl))bis(4-methylthiazole-5,2-diyl))diethanone] | 66.5 | 2.6 | 18.7 | 58 | 78 | – | – | – |
| Fc1ccc(-c2cs/c(=N\c3ccccc3)n2-c2cccc(-n3c(-c4ccc(F)cc4)cs/c3=N\c3ccccc3)c2)cc1 [8b, N,N’-(3,3’-(1,3-phenylene)bis(4–(4-fluorophenyl)thiazole-3(3H)-yl-2(3H)-ylidene))dianiline] | 51.7 | 1.9 | 26.5 | – | – | 25.9 | 77.8 | – |
| Cc1nc(Nc2cccc(Nc3nc(C)c(N=Nc4ccccc4)s3)c2)sc1N=Nc1ccccc1 [5a, N^1,N^3-bis(4-methyl-5-(phenyldiazenyl)thiazol-2-yl)benzene-1,3-diamine] | – | – | – | – | – | – | – | poor solubility in DMSO |
